Assay results taken from publication PMC7496096, “Functional Characterisation of ClpP Mutations Conferring Resistance to Acyldepsipeptide Antibiotics in Firmicutes” (Chembiochem, 2020).
In brackets after ≈: the same amount, converted by molar mass.

Legend:
[1] = test system: S. pneumoniae RC4; format: cell-based, Streptococcus pneumoniae; conditions: resistant clone of S. pneumoniae G9A; ClpP A94→G (ClpP core; β4)
Procedure: (§1) Determination of antibacterial activity: ADEP1 was purified from the culture supernatant of S. hawaiiensis NRRL 15010 as described.4 ADEPs 2, 4, 7, 9 were custom synthesised by EMC Microcollections, Tübingen, or provided by AiCuris, Wuppertal, Germany. The minimal inhibitory concentration (MIC) was determined by broth microdilution in Mueller‐Hinton broth (without cation adjustment) according to the guidelines of the Clinical Laboratory Standards Institute (CLSI).69 The inoculum was set to 5×10^4 CFU mL^−1 to allow some distance to the determined spontaneous resistance frequencies. […] All other ADEPs were used from DMSO stock solutions kept at −20 °C.
(§2) Screening for ADEP‐resistant mutants and determination of resistance rates: Single colonies of wild‐type strains grown on Mueller‐Hinton agar plates overnight were suspended in sterile saline and a final inoculum of 5×10^6 cells was spread on plates supplemented with different ADEP congeners at 4× and 10× the MIC. For B. subtilis strain 3xclpP, ADEP7‐containing Mueller‐Hinton agar plates were additionally supplemented with 1 mM IPTG. Resistant colonies were counted after 24 h at 37 °C and colonies were randomly chosen for MIC determinations and sequencing. Mutations in the clpP gene of the respective isolated mutants were analysed by amplifying the clpP gene (and upstream promoter region) by PCR and sequencing of the resulting PCR amplicons (LGC genomics). Sequencing data were analysed by using SnapGene software (GSL Biotech).

[2] = test system: B. subtilis 168; assay: microbe, parasite or virus in culture; format: cell-based, Bacillus subtilis; conditions: broth microdilution, Mueller-Hinton broth (without cation adjustment), CLSI, inoculum 5×10^4 CFU mL^−1; wild type
Procedure: as §1

[3] = test system: E. faecium L4001; format: cell-based, Enterococcus faecium; conditions: broth microdilution, Mueller-Hinton broth; wildtype
Procedure: as §1

[4] = test system: S. aureus RC11; format: cell-based, Staphylococcus aureus; conditions: resistant clone of S. aureus ATCC 29213; ClpP Q82→P (ClpP core; α3)
Procedure: as §1, §2

[5] = test system: S. aureus RC13; format: cell-based, Staphylococcus aureus; conditions: resistant clone of S. aureus ATCC 29213; ClpP G68→V (ClpP core)
Procedure: as §1, §2

[6] = test system: S. aureus RC17; format: cell-based, Staphylococcus aureus; conditions: resistant clone of S. aureus ATCC 29213; ClpP A133→V, ring-ring interaction
Procedure: as §1, §2

[7] = test system: S. aureus RC9; format: cell-based, Staphylococcus aureus; conditions: resistant clone of S. aureus ATCC 29213; ClpP H123→R, active site
Procedure: as §1, §2

[8] = test system: S. aureus RC8; format: cell-based, Staphylococcus aureus; conditions: resistant clone of S. aureus ATCC 29213; Δ107 nt, C-terminal truncation
Procedure: as §1, §2

[9] = test system: S. aureus RC1; format: cell-based, Staphylococcus aureus; conditions: resistant clone of S. aureus 133; ClpP Q132→H, oligomerisation sensor
Procedure: as §1, §2

[10] = test system: S. aureus RC6; format: cell-based, Staphylococcus aureus; conditions: resistant clone of S. aureus 133; ClpP Q35→STOP, premature stop
Procedure: as §1, §2

[11] = test system: S. aureus RC18; format: cell-based, Staphylococcus aureus; conditions: resistant clone of S. aureus ATCC 29213; ClpP R23→P, N-terminal gate
Procedure: as §1, §2

[12] = test system: S. aureus RC10; format: cell-based, Staphylococcus aureus; conditions: resistant clone of S. aureus ATCC 29213; ClpP I165→M (equatorial interface; α6)
Procedure: as §1, §2

[13] = test system: S. aureus RC3; format: cell-based, Staphylococcus aureus; conditions: resistant clone of S. aureus 133; ClpP A133→T, ring-ring interaction
Procedure: as §1, §2

[14] = test system: S. aureus RC16; format: cell-based, Staphylococcus aureus; conditions: resistant clone of S. aureus ATCC 29213; ClpP A114→T (ClpP core; β5)
Procedure: as §1, §2

[15] = test system: S. aureus RC12; format: cell-based, Staphylococcus aureus; conditions: resistant clone of S. aureus ATCC 29213; ClpP E9→V, N-terminal gate
Procedure: as §1, §2

[16] = test system: S. aureus RC15; format: cell-based, Staphylococcus aureus; conditions: resistant clone of S. aureus ATCC 29213; ClpP E52→STOP, premature stop
Procedure: as §1, §2

Molecule `C[C@@H]1C[C@H]2C(=O)OC[C@H](NC(=O)[C@H](Cc3cc(F)cc(F)c3)NC(=O)CCC3CCCCC3)C(=O)N3CCC[C@H]3C(=O)N3CCCC[C@H]3C(=O)N[C@@H](C)C(=O)N2C1` [ADEP2] has an MIC [1] of 16 mg/L (≈ 20 µM), an MIC [2] of no more than 0.031 mg/L and an MIC [3] of no more than 0.063 mg/L. It also gave an MIC [4] greater than 64 mg/L, an MIC [5] greater than 64 mg/L and an MIC [6] greater than 64 mg/L. It also gave an MIC [7] greater than 64 mg/L, an MIC [8] greater than 64 mg/L and an MIC [9] of 8 mg/L (≈ 10 µM). For the same molecule, the MIC [10] was greater than 64 mg/L, the MIC [11] was greater than 64 mg/L and the MIC [12] was greater than 64 mg/L. It also gave an MIC [13] greater than 64 mg/L, an MIC [14] greater than 64 mg/L and an MIC [15] greater than 64 mg/L. The MIC [16] was greater than 64 mg/L.
